TS expression amount data for one compound are collected here from patent publication US20110003805A1, “CONCOMITANT DRUG” (TAKEDA PHARMACEUTICAL COMPANY LIMITED, priority 2008, published 2011).

For this assay, the system named is TS (thymidine) gene expression in human breast cancer cell line BT-474. Put plainly: Measurement of expression amount of TS (thymidine) by addition of compound A, TaqMan. The conditions noted are these: BT-474 cells, 100 nmol/L, two days after addition, GAPDH as internal standard (FIG. 4). The class given is cell-based.

Description: Human breast cancer cell line BT-474 (ATCC (American Type Culture Collection) catalog No. HTB-20, Lasfargues EY, In Vitro 15:723-729(1979)), which is a passage cultured HER2 high expressing cell, was treated with trypsin and suspended in RPMI-1640 medium (GibcoInvitrogen) containing 10% bovine fetus serum (GibcoInvitrogen). The cell density of the cell suspension was measured by cell counter Sysmex CDA500, and the cell density was adjusted to 5×10^4 cell/mL using the aforementioned medium. The suspension was dispensed to each well of a 6 well multi-well culture plate (Corning) by 2 mL, and cultured overnight at 37° C. under 5% CO2. […] Using this cDNA as a template, the TS expression amount was measured using TaqMan Gene Expression Assays (Applied Biosystems). […] Ct method (Applied Biosystems) with GAPDH as an internal standard (FIG. 4).

As for `CC(C)(O)CC(=O)NCCn1ccc2ncnc(Nc3ccc(Oc4cccc(C(F)(F)F)c4)c(Cl)c3)c21` [compound A, N-{2-[4-({3-chloro-4-[3-(trifluoromethyl)phenoxy]phenyl}amino)-5H-pyrrolo[3,2-d]pyrimidin-5-yl]ethyl}-3-hydroxy-3-methylbutaneamide], the TS expression amount result is “remarkably decreased”.
